{
  "source": "paper PMC11237774",
  "about": "“On-target, dual aminopeptidase inhibition provides cross-species antimalarial activity” (mBio, 2024)",
  "key": {"Pv-M1": {"target": "Pv-M1 (Plasmodium vivax, UniProt A5JZA9)", "sequence (A5JZA9 entry or part of it)": "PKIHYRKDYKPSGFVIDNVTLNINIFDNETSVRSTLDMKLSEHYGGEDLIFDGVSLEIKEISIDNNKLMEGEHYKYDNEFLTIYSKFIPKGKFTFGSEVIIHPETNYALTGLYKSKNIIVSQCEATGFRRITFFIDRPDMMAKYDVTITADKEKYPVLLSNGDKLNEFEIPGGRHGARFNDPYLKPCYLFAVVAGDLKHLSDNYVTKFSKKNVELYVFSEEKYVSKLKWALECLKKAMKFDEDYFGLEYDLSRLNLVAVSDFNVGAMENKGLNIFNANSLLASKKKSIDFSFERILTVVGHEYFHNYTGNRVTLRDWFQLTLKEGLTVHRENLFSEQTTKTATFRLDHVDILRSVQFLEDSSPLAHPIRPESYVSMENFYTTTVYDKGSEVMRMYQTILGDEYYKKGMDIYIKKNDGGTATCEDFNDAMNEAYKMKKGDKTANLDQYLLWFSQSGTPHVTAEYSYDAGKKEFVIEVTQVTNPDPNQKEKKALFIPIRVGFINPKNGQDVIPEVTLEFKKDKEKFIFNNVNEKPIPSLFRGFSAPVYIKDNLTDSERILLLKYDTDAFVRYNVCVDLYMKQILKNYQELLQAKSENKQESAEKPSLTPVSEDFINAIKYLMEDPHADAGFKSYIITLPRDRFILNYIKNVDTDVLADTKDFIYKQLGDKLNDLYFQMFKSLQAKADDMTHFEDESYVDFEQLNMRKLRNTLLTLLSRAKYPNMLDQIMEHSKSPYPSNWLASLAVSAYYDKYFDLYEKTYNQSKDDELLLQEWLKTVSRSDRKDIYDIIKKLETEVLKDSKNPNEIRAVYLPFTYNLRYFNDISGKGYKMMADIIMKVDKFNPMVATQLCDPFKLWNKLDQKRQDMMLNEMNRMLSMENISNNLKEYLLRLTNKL", "test": "Recombinant aminopeptidase fluorescence assay (H-Leu-NHMec)", "type": "biochemical, P. vivax", "protocol": "(§1) Inhibition of aminopeptidase activity assays were performed against nine aminopeptidases: the M1 alanyl and M17 leucyl aminopeptidases from P. falciparum (PfA-M1; PfA-M17), P. vivax (Pv-M1; Pv-M17), and P. berghei (Pb-M1; Pb-M17), and three human M1 homologs: LTA4H (OriGene TP307617), ERAP1 (OriGene TP314469), and ERAP2 (Creative BioMart ERAP2-304H). The Plasmodium enzymes were produced recombinantly as described previously ([16], [17]), and the human recombinant enzymes were purchased from commercial suppliers as indicated.\n(§2) The concentration of H-Leu-NHMec in the assay was held constant for each enzyme and ranged from 10 to 100 µM, depending on the enzyme. Reactions were measured at 37°C in white 384-well plates in a total volume of 25 or 50 µL using a spectrofluorimeter (BMG FLUOstar) with excitation at 355 nm and emission at 460 nm. The fluorescence signal was continuously monitored until a final steady-state velocity, v, was obtained. Inhibition constants were calculated from biological triplicates made from three different protein preparations.\n(§3) Substrate concentrations were selected to allow sensitive detection of enzyme activity while not exceeding the Km for each enzyme. A compound concentration range was selected to obtain a complete inhibition curve (0%–100 %) in biological triplicate. Where possible, the Ki values were calculated by plotting the initial rates versus inhibitor concentration and fitting to the Morrison equation for tight-binding inhibitors in GraphPad Prism (V.8.4.1; non-linear regression method)."}, "Pb-M1": {"target": "Pb-M1 (Plasmodium berghei, UniProt A0A509ATR4)", "sequence (A0A509ATR4 entry or part of it)": "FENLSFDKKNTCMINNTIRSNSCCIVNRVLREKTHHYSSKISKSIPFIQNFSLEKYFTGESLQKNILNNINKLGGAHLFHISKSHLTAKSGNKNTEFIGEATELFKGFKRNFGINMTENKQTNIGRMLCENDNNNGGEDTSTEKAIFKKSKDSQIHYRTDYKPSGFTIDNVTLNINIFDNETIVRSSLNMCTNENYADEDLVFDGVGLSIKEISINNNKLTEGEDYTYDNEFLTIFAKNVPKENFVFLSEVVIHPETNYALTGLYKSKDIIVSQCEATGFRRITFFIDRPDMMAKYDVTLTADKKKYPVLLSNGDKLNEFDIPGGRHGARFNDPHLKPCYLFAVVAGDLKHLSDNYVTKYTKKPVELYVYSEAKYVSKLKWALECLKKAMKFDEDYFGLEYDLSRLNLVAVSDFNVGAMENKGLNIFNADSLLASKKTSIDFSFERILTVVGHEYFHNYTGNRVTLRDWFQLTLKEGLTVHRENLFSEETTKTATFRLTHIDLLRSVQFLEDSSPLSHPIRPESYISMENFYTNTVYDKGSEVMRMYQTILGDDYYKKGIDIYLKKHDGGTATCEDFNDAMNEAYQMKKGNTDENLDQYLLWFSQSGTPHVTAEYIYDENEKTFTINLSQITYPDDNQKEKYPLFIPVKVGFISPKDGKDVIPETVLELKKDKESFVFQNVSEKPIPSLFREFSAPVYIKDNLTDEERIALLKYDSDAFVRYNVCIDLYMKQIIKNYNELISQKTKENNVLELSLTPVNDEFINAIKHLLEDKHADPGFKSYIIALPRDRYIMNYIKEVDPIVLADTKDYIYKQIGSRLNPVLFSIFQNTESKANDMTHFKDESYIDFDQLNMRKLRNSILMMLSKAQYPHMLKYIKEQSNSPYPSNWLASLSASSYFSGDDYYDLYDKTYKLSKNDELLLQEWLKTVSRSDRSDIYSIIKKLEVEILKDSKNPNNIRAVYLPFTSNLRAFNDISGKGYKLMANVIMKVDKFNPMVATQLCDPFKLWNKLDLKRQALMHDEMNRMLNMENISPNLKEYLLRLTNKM", "test": "Recombinant aminopeptidase fluorescence assay (H-Leu-NHMec)", "type": "biochemical", "protocol": "as §1, §2, §3"}, "ERAP1": {"target": "T1, ERAP1 (Homo sapiens, UniProt Q9NZ08)", "T1 construct": "purchased OriGene TP314469", "T1 sequence (Q9NZ08 whole entry)": "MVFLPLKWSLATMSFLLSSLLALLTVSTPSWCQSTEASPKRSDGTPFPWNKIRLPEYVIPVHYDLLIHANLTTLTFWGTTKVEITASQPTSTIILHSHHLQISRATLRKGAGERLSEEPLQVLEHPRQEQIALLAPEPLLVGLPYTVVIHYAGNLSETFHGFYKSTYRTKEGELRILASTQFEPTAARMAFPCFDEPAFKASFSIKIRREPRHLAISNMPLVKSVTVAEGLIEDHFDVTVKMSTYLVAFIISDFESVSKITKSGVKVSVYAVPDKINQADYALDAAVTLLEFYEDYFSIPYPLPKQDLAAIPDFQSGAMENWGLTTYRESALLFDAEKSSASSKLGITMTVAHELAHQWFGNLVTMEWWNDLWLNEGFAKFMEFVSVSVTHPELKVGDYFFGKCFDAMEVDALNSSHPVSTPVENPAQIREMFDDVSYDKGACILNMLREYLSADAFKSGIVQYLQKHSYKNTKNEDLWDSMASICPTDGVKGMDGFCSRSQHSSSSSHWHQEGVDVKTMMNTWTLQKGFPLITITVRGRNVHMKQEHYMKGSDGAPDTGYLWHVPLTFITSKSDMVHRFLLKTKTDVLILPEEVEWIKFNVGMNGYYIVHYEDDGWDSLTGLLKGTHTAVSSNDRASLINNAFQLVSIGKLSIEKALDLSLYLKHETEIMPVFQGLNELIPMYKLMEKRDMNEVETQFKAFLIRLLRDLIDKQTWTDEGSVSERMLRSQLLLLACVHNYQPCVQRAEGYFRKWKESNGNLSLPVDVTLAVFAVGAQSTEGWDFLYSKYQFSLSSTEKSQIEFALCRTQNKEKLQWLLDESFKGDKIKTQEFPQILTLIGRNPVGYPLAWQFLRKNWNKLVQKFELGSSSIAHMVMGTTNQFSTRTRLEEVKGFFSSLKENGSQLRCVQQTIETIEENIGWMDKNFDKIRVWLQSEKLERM", "test": "Recombinant aminopeptidase fluorescence assay (H-Leu-NHMec)", "type": "biochemical", "conditions": "for inhibition at 1.25 µM: ERAP1, 1.25 µM compound; for inhibition at 10 µM: ERAP1, 10 µM compound; for inhibition at 500 µM: ERAP1, 500 µM compound; for inhibition at 1000 µM: ERAP1, 1000 µM compound", "protocol": "as §1, §2, §3"}, "ERAP2": {"target": "T2, ERAP2 (Homo sapiens, UniProt Q6P179)", "T2 construct": "purchased Creative BioMart ERAP2-304H", "T2 sequence (Q6P179 whole entry)": "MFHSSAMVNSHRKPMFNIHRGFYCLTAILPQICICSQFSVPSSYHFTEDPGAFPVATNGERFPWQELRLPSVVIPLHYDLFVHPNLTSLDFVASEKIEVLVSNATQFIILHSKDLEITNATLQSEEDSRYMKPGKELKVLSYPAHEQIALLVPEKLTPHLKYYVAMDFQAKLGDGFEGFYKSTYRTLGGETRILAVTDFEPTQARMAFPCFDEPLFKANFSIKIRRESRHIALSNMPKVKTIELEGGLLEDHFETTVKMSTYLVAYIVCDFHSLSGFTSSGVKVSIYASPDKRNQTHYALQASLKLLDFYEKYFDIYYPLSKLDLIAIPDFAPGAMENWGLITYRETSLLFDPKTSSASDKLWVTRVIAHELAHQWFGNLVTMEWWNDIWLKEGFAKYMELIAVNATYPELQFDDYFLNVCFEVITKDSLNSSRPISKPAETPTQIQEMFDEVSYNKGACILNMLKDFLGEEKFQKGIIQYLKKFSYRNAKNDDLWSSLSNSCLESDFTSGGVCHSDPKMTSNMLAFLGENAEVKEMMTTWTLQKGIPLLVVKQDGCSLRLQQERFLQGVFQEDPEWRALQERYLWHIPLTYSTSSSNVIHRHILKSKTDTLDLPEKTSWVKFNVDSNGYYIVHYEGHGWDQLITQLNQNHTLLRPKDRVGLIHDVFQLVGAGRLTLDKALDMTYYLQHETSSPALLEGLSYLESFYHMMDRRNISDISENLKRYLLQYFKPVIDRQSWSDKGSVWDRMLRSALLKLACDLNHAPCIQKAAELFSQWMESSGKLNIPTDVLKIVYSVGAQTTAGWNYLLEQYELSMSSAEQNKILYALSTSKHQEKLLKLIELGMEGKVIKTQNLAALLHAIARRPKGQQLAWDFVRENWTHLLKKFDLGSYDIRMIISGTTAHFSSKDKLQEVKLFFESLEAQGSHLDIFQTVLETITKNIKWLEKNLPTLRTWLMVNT", "test": "Recombinant aminopeptidase fluorescence assay (H-Leu-NHMec)", "type": "biochemical", "conditions": "for inhibition at 1.25 µM: ERAP2, 1.25 µM compound; for inhibition at 10 µM: ERAP2, 10 µM compound; for inhibition at 500 µM: ERAP2, 500 µM compound; for inhibition at 1000 µM: ERAP2, 1000 µM compound", "protocol": "as §1, §2, §3"}, "[1]": {"system": "P. vivax clinical isolates", "test": "Ex vivo drug susceptibility assay (schizont maturation) on clinical isolates", "type": "cell-based", "conditions": "ex vivo clinical isolates, n = 6, read-out: P. vivax median EC50 (range)", "protocol": "(§4) Plasmodium isolates were collected from patients attending public health clinics in Timika (Papua, Indonesia), a region endemic for multidrug-resistant strains of P. vivax and P. falciparum ([38][–][40]). Patients with symptomatic malaria presenting to an outpatient facility were recruited into the study if infected with either P. falciparum or P. vivax, with a parasitemia of between 2,000 µL^−1 and 80,000 µL^−1, and the majority (>60%) of asexual parasites at the ring stage of development. Venous blood (5 mL) was collected by venipuncture, and after removal of patient white blood cells using Plasmodipur filters (EuroProxima B.V., The Netherlands), packed infected red blood cells (iRBCs) were used for the ex vivo drug susceptibility assay.\n(§5) Drug plates were pre-dosed by diluting the compounds in 50% methanol followed by lyophilization and storage at 4°C. Drug susceptibility of P. vivax and P. falciparum isolates was measured using a protocol modified from the WHO microtest as described previously ([40], [41]). […] A candle jar was used to mature the parasites at 37.0°C for 35–56 h. […] Thick blood films made from each well were stained with 5% Giemsa solution for 30 min and examined microscopically. The number of schizonts per 200 asexual-stage parasites was determined for each drug concentration and normalized to the control well without drug. The dose response data were analyzed using non-linear regression analysis, and the EC50 value was derived using an inhibitory sigmoid Emax model (In Vitro Analysis and Reporting Tool [IVART] [42, 43])."}, "[2]": {"system": "P. falciparum clinical isolates", "test": "Ex vivo drug susceptibility assay (schizont maturation) on clinical isolates", "type": "cell-based", "conditions": "ex vivo clinical isolates, n = 15, read-out: P. falciparum median EC50 (range)", "protocol": "as §4, §5"}, "PfA-M1": {"target": "T3, PfA-M1 (Plasmodium falciparum, UniProt O96935)", "T3 construct": "made in house", "T3 sequence (O96935 whole entry)": "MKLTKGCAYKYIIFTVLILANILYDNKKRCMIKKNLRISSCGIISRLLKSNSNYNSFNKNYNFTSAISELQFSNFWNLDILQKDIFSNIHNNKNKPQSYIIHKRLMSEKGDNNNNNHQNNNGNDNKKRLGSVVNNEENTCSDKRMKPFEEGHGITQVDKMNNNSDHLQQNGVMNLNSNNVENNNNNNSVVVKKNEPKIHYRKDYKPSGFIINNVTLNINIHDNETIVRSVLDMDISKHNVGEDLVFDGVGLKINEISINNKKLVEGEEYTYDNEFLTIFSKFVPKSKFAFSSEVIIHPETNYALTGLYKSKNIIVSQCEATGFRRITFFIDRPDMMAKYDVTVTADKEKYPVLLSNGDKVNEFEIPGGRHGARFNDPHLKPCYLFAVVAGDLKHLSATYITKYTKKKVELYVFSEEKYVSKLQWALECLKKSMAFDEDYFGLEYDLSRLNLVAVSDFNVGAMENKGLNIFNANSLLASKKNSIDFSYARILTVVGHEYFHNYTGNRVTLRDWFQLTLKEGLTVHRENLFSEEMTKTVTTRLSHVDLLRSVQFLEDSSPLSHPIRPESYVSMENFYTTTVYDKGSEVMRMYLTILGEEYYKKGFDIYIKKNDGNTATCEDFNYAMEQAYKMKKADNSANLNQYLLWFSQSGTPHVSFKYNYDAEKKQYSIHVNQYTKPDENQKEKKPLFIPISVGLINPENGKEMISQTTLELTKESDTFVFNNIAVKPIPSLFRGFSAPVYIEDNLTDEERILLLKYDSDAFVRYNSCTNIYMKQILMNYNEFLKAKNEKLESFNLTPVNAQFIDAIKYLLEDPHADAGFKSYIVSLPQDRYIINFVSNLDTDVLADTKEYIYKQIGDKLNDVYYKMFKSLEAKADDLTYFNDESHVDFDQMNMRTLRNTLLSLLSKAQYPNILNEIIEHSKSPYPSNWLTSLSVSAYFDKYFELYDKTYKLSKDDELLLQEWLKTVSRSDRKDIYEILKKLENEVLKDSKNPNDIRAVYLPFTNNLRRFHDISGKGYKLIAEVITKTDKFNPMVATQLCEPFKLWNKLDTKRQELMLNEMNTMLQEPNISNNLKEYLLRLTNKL", "test": "Recombinant aminopeptidase fluorescence assay (H-Leu-NHMec)", "type": "biochemical, P. falciparum", "protocol": "as §1, §2, §3"}, "[3]": {"system": "PfNF54-s16-GFP late (IV–V) stage gametocytes", "test": "Image-based gametocyte viability assay", "type": "cell-based, P. falciparum", "conditions": "Plasmodium falciparum; stages IV–V, 72 h; read-out: IC50 Late-stage Gametocytes (mean ± SD)", "protocol": "Viability assays were performed as described previously ([32], [33]) against PfNF54-s16-GFP early(I–III), late (IV–V), and mature (V) stage gametocytes. Gametocytes were assessed at the appropriate time points following gametogenesis; early stage (day 2), late stage (day 8), and mature stage (day 12). Compounds diluted in 4% DMSO were transferred into 384-well imaging plates; gametocytes prepared as described previously (35) were added, and plates were incubated for 72 h in 5% CO2, 5% O2, and 60% humidity at 37°C. After 72 h incubation, 5 µL of MitoTracker Red CMH2XRos in phosphate buffered saline (PBS) was added per well, and plates were incubated overnight. Image acquisition and analysis were undertaken on the Opera QEHS micro-plate confocal imaging system. An Acapella-based script using the CMH2XRos fluorescent signal and the GFP-designated object quantifying viable stage-dependent parasite morphology identified gametocytes. Gametocyte viability was calculated as a percentage of the positive (5 µM puromycin) and negative (0.4% DMSO) controls. IC50 values were calculated using a 4-parameter log dose, non-linear regression analysis, with sigmoidal dose response (variable slope) curve fit using GraphPad Prism (ver 4.0). No constraints were used in the curve fit. […] Experiments were performed as two or three biological replicates in duplicate."}, "[4]": {"conditions": "read-out: Inhibition of aminopeptidase activity"}},
  "note": "Like-named read-outs stand apart in the source and are kept apart here.",
  "data": [
    {"smiles": "CC(C)(C)CC(=O)NC(C(=O)NO)c1ccc(-c2cc(F)c(F)c(F)c2)cc1", "note": "(centres unmarked) [MMV1557817, N-(2-(hydroxyamino)−2-oxo-1-(3′,4′,5′-trifluoro-[1,1′-biphenyl]-4-yl)ethyl)-3,3-dimethylbutanamide]", "values": [
      {"measurement": "Ki", "setting": "Pv-M1", "result": 19, "unit": "nM"},
      {"measurement": "inhibition at 1.25 µM", "setting": "Pv-M1; [4]", "result": 96, "unit": "%"},
      {"measurement": "inhibition at 10 µM", "setting": "Pv-M1; [4]", "result": 100, "unit": "%"},
      {"measurement": "Ki", "setting": "Pb-M1", "result": "2 ± 0.2", "unit": "nM"},
      {"measurement": "inhibition at 1.25 µM", "setting": "Pb-M1; [4]", "result": 94, "unit": "%"},
      {"measurement": "inhibition at 10 µM", "setting": "Pb-M1; [4]", "result": 100, "unit": "%"},
      {"measurement": "inhibition at 1.25 µM", "setting": "ERAP1", "result": 0, "unit": "%"},
      {"measurement": "inhibition at 10 µM", "setting": "ERAP1", "result": 0, "unit": "%"},
      {"measurement": "inhibition at 500 µM", "setting": "ERAP1", "result": 75, "unit": "%"},
      {"measurement": "inhibition at 1000 µM", "setting": "ERAP1", "result": 98, "unit": "%"},
      {"measurement": "inhibition at 1.25 µM", "setting": "ERAP2", "result": 7, "unit": "%"},
      {"measurement": "inhibition at 10 µM", "setting": "ERAP2", "result": 0, "unit": "%"},
      {"measurement": "inhibition at 500 µM", "setting": "ERAP2", "result": 99.1, "unit": "%"},
      {"measurement": "inhibition at 1000 µM", "setting": "ERAP2", "result": 100, "unit": "%"},
      {"measurement": "EC50", "setting": "[1]; Plasmodium vivax", "result": 69, "unit": "nM"},
      {"measurement": "EC50", "setting": "[1]", "result": 68.6, "unit": "nM"},
      {"measurement": "EC50", "setting": "[2]; Plasmodium falciparum", "result": 98, "unit": "nM"},
      {"measurement": "EC50", "setting": "[2]", "result": 98.1, "unit": "nM"},
      {"measurement": "Ki", "setting": "PfA-M1; Pf M1, Morrison equation, read-out: Ki^(app) ± SEM", "result": 308, "unit": "nM"},
      {"measurement": "inhibition at 1.25 µM", "setting": "PfA-M1; [4]", "result": 83, "unit": "%"},
      {"measurement": "inhibition at 10 µM", "setting": "PfA-M1; [4]", "result": 100, "unit": "%"},
      {"measurement": "IC50", "setting": "[3]", "result": 309, "unit": "nM"}
    ]},
    {"smiles": "C[C@H]1[C@H](OC(=O)CCC(=O)O)O[C@@H]2O[C@@]3(C)CC[C@H]4[C@H](C)CC[C@@H]1[C@@]24OO3", "note": "[artesunate]", "values": [
      {"measurement": "inhibition at 1.25 µM", "setting": "Pv-M1; [4]", "result": 2.1, "unit": "%"},
      {"measurement": "inhibition at 10 µM", "setting": "Pv-M1; [4]", "result": 23.6, "unit": "%"},
      {"measurement": "inhibition at 500 µM", "setting": "Pv-M1; [4]", "result": 74, "unit": "%"},
      {"measurement": "inhibition at 1000 µM", "setting": "Pv-M1; [4]", "result": 68.2, "unit": "%"},
      {"measurement": "inhibition at 10 µM", "setting": "Pb-M1; Pb-M1, 10 µM compound, read-out: Inhibition of aminopeptidase activity", "result": 12.8, "unit": "%"},
      {"measurement": "inhibition at 1.25 µM", "setting": "Pb-M1; [4]", "result": 0, "unit": "%"},
      {"measurement": "inhibition at 500 µM", "setting": "Pb-M1; [4]", "result": 81.3, "unit": "%"},
      {"measurement": "inhibition at 1000 µM", "setting": "Pb-M1; [4]", "result": 78.2, "unit": "%"},
      {"measurement": "inhibition at 1.25 µM", "setting": "ERAP1", "result": 0, "unit": "%"},
      {"measurement": "inhibition at 10 µM", "setting": "ERAP1", "result": 0, "unit": "%"},
      {"measurement": "inhibition at 500 µM", "setting": "ERAP1", "result": 0, "unit": "%"},
      {"measurement": "inhibition at 1000 µM", "setting": "ERAP1", "result": 0, "unit": "%"},
      {"measurement": "inhibition at 1.25 µM", "setting": "ERAP2", "result": 0, "unit": "%"},
      {"measurement": "inhibition at 10 µM", "setting": "ERAP2", "result": 0, "unit": "%"},
      {"measurement": "inhibition at 500 µM", "setting": "ERAP2", "result": 0, "unit": "%"},
      {"measurement": "inhibition at 1000 µM", "setting": "ERAP2", "result": 0, "unit": "%"},
      {"measurement": "EC50", "setting": "[1]; Plasmodium vivax", "result": 0.6, "unit": "nM"},
      {"measurement": "EC50", "setting": "[1]", "result": 1, "unit": "nM"},
      {"measurement": "EC50", "setting": "[2]; Plasmodium falciparum", "result": 1.2, "unit": "nM"},
      {"measurement": "EC50", "setting": "[2]", "result": 1, "unit": "nM"},
      {"measurement": "inhibition at 1.25 µM", "setting": "PfA-M1; [4]", "result": 4.8, "unit": "%"},
      {"measurement": "inhibition at 10 µM", "setting": "PfA-M1; [4]", "result": 11.9, "unit": "%"},
      {"measurement": "inhibition at 500 µM", "setting": "PfA-M1; [4]", "result": 16.8, "unit": "%"},
      {"measurement": "inhibition at 1000 µM", "setting": "PfA-M1; [4]", "result": 43.2, "unit": "%"},
      {"measurement": "IC50", "setting": "[3]", "result": "26 ± 2", "unit": "nM"}
    ]}
  ]
}
